Results as given in ChEMBL document CHEMBL1955722, “1,2,4-Oxadiazoles: a new class of anti-prostate cancer agents” (Bioorg Med Chem Lett, 2012).

Experiments:
[1] = tested on: LNCaP; assay: Cytotoxicity against human androgen-dependent LNCAP cells at 1 uM by MTT assay; format: functional
[2] = tested on: MCF-10A; assay: Cytotoxicity against human MCF10A cells at 1 uM by MTT assay; format: cell-based
[3] = tested on: DU-145; assay: Cytotoxicity against human androgen-independent DU145 cells at 1 uM by MTT assay; format: functional
[4] = tested on: PC-3; assay: Cytotoxicity against human androgen-independent PC3 cells by MTT assay; format: functional, cell-based
[5] = tested on: DU-145; assay: Cytotoxicity against human androgen-independent DU145 cells by MTT assay; format: functional, cell-based
[6] = tested on: PC-3; assay: Cytotoxicity against human androgen-independent PC3 cells at 1 uM by MTT assay; format: functional
[7] = tested on: LNCaP; assay: Cytotoxicity against human androgen-dependent LNCAP cells by MTT assay; format: functional, cell-based
[8] = tested on: DU-145; assay: Ratio of doxorubicin IC50 to compound IC50 for human androgen-independent DU145 cells

With `CC(O)(CSc1ccc(Cl)cc1)c1nc(-c2ccc([N+](=O)[O-])c(C(F)(F)F)c2)no1` (centres undefined) the Activity [1] was 28.93%, the Activity [2] was 10.35% and the Activity [3] was 48.93%. The IC50 [4] was 3 µM, the IC50 [5] was 1.3 µM and the Activity [6] was 39.61%. For the same molecule, the IC50 [7] was greater than 100 µM.

With `CC(O)(CSc1ccc(Br)cc1)c1nc(-c2ccc([N+](=O)[O-])c(C(F)(F)F)c2)no1` (centres undefined) the Activity [1] was 27.45%, the Activity [2] was 10.55% and the Activity [3] was 48.71%. It also gave an IC50 [4] of 51 µM, an IC50 [5] of 1.6 µM and an Activity [6] of 31.77%. For the same molecule, the IC50 [7] was 40 µM.

Molecule `CC(O)(CSc1ccccc1)c1nc(-c2ccccc2)no1` (centres undefined) has an IC50 [5] greater than 100 µM.

Work on `CC(O)(CSc1ccc(F)cc1)c1nc(-c2ccccc2)no1` (centres undefined) yielded an IC50 [5] greater than 100 µM.

Work on `CC(O)(CSc1ccc(Cl)cc1)c1nc(-c2ccccc2)no1` (centres undefined) yielded an IC50 [5] of 70.7 µM.

Molecule `CC(O)(CSc1ccc(Br)cc1)c1nc(-c2ccccc2)no1` (centres undefined) has an IC50 [5] greater than 100 µM.

`CC(O)(CSc1ccccc1)c1nc(-c2ccc(Cl)cc2)no1` (centres undefined) was tested, and the IC50 [5] was 4.5 µM.

Work on `CC(O)(CSc1ccc(F)cc1)c1nc(-c2ccc(Cl)cc2)no1` (centres undefined) yielded an IC50 [5] of 36.2 µM.

`CC(O)(CSc1ccc(Cl)cc1)c1nc(-c2ccc(Cl)cc2)no1` (centres undefined) was tested, and the IC50 [5] was 14.5 µM.

Work on `CC(O)(CSc1ccc(Br)cc1)c1nc(-c2ccc(Cl)cc2)no1` (centres undefined) yielded an IC50 [5] of 6.5 µM.

`CC(O)(CSc1ccccc1)c1nc(-c2ccc(F)c(Cl)c2)no1` (centres undefined) gave an IC50 [5] of 5.5 µM.

`CC(O)(CSc1ccc(F)cc1)c1nc(-c2ccc(F)c(Cl)c2)no1` (centres undefined) was tested, and the Activity [1] was 32.86%, the Activity [2] was 12.44% and the Activity [3] was 47.84%. The IC50 [4] was 11.5 µM, the IC50 [5] was 2.9 µM and the Activity [6] was 40.77%. For the same molecule, the IC50 [7] was greater than 100 µM.

For `CC(O)(CSc1ccc(Cl)cc1)c1nc(-c2ccc(F)c(Cl)c2)no1` (centres undefined), the Activity [1] was 33.85%, the Activity [2] was 10.62% and the Activity [3] was 68.41%. The IC50 [4] was 10 µM, the IC50 [5] was 0.5 µM and the “Ratio IC50” value [8] was 11.6. For the same molecule, the Activity [6] was 44.39% and the IC50 [7] was 26.4 µM.

`CC(O)(CSc1ccc(Br)cc1)c1nc(-c2ccc(F)c(Cl)c2)no1` (centres undefined) showed an IC50 [5] of 8.8 µM.

For `CC(O)(CSc1ccccc1)c1nc(-c2ccc([N+](=O)[O-])c(C(F)(F)F)c2)no1` (centres undefined), the Activity [1] was 31.1%, the Activity [2] was 12.62% and the Activity [3] was 49.62%. It also gave an IC50 [4] of 3.5 µM, an IC50 [5] of 3 µM and an Activity [6] of 49.02%. For the same molecule, the IC50 [7] was 9.67 µM.

For `CC(O)(CSc1ccc(F)cc1)c1nc(-c2ccc([N+](=O)[O-])c(C(F)(F)F)c2)no1` (centres undefined), the Activity [1] was 26.88%, the Activity [2] was 11.35% and the Activity [3] was 47.28%. The IC50 [4] was 5.5 µM, the IC50 [5] was 5.1 µM and the Activity [6] was 46.89%. For the same molecule, the IC50 [7] was 8.15 µM.

`CC(O)(CS(=O)(=O)c1ccccc1)c1nc(-c2ccccc2)no1` (centres undefined) gave an IC50 [5] greater than 100 µM.

With `CC(O)(CS(=O)(=O)c1ccc(F)cc1)c1nc(-c2ccccc2)no1` (centres undefined) the IC50 [5] was greater than 100 µM.

With `CC(O)(CS(=O)(=O)c1ccc(Cl)cc1)c1nc(-c2ccccc2)no1` (centres undefined) the IC50 [5] was greater than 100 µM.

In the case of `CC(O)(CS(=O)(=O)c1ccc(Br)cc1)c1nc(-c2ccccc2)no1` (centres undefined), the IC50 [5] is reported as greater than 100 µM.

`CC(O)(CS(=O)(=O)c1ccccc1)c1nc(-c2ccc(Cl)cc2)no1` (centres undefined) showed an IC50 [5] greater than 100 µM.

Molecule `CC(O)(CS(=O)(=O)c1ccc(F)cc1)c1nc(-c2ccc(Cl)cc2)no1` (centres undefined) has an IC50 [5] greater than 100 µM.

`CC(O)(CS(=O)(=O)c1ccc(Cl)cc1)c1nc(-c2ccc(Cl)cc2)no1` (centres undefined) showed an IC50 [5] greater than 100 µM.

In the case of `CC(O)(CS(=O)(=O)c1ccc(Br)cc1)c1nc(-c2ccc(Cl)cc2)no1` (centres undefined), the IC50 [5] is reported as greater than 100 µM.

In the case of `CC(O)(CS(=O)(=O)c1ccccc1)c1nc(-c2ccc(F)c(Cl)c2)no1` (centres undefined), the IC50 [5] is reported as greater than 100 µM.

Work on `CC(O)(CS(=O)(=O)c1ccc(F)cc1)c1nc(-c2ccc(F)c(Cl)c2)no1` (centres undefined) yielded an IC50 [5] greater than 100 µM.

Molecule `CC(O)(CS(=O)(=O)c1ccc(Cl)cc1)c1nc(-c2ccc(F)c(Cl)c2)no1` (centres undefined) has an IC50 [5] of 35.5 µM.

In the case of `CC(O)(CS(=O)(=O)c1ccc(Br)cc1)c1nc(-c2ccc(F)c(Cl)c2)no1` (centres undefined), the IC50 [5] is reported as 75 µM.

`CC(O)(CS(=O)(=O)c1ccccc1)c1nc(-c2ccc([N+](=O)[O-])c(C(F)(F)F)c2)no1` (centres undefined) gave an IC50 [5] greater than 100 µM.

In the case of `CC(O)(CS(=O)(=O)c1ccc(F)cc1)c1nc(-c2ccc([N+](=O)[O-])c(C(F)(F)F)c2)no1` (centres undefined), the IC50 [5] is reported as greater than 100 µM.

In the case of `CC(O)(CS(=O)(=O)c1ccc(Cl)cc1)c1nc(-c2ccc([N+](=O)[O-])c(C(F)(F)F)c2)no1` (centres undefined), the IC50 [5] is reported as 91 µM.

With `CC(O)(CS(=O)(=O)c1ccc(Br)cc1)c1nc(-c2ccc([N+](=O)[O-])c(C(F)(F)F)c2)no1` (centres undefined) the IC50 [5] was greater than 100 µM.

In the case of `CC(O)(CS(=O)(=O)c1ccc(F)cc1)C(=O)Nc1ccc(C#N)c(C(F)(F)F)c1` (centres undefined) [BICALUTAMIDE], the IC50 [4] is reported as 77 µM, the IC50 [5] is reported as 64 µM and the IC50 [7] is reported as 1.71 µM.

Work on `COc1cccc2c1C(=O)c1c(O)c3c(c(O)c1C2=O)C[C@@](O)(C(=O)CO)C[C@@H]3O[C@H]1C[C@H](N)[C@H](O)[C@H](C)O1` [DOXORUBICIN] yielded an IC50 [4] of 1.05 µM and an IC50 [5] of 5.8 µM.
